System: A549 cells
Assay: Microarray analysis of gene expression after LAQ824 treatment
Assay type: cell-based, human
Conditions: for Fold change AMP-activated protein kinase family member 5 (ARK5) 204589_at / Fold change ANP32B acidic (leucine-rich) nuclear phosphoprotein 32 family, member B (SSP29) 201305_x_at / Fold change AVEN apoptosis, caspase activation inhibitor (Aven) 219366_at / Fold change B-cell CLL/lymphoma 3 (BCL3) 204908_s_at / Fold change BAI1-associated protein 2 (BAP2, IRSp53) 205293_x_at / Fold change BAI1-associated protein 3 (BAP3, KIAA0734) 204874_x_at / Fold change BAI1-associated protein 3 (BAP3, KIAA0734) 216356_x_at / Fold change BCL2-associated athanogene 2 (BAG-2) 209406_at / Fold change BCL2-interacting killer (apoptosis-inducing) (BP4, NBK, BIP1) 205780_at / Fold change BCL2-like 1 (BCL2L1) 206665_s_at / Fold change BH3 interacting domain death agonist (BID) 204493_at / Fold change Cyclin A2 (CCN1, CCNA) 203418_at / Fold change Cyclin-dependent kinase inhibitor 2D (p19, inhibits CDK4) (INK4D) 210240_s_at / Fold change DEC1-anti apoptosis (BHLHB2) 201169_s_at / Fold change Diphtheria toxin receptor (heparin-binding epidermal growth factor-like growth factor) (DTR) 203821_at / Fold change Early growth response 1 (TIS8, NGFI-A, KROX-24, ZIF-268) 201694_s_at / Fold change GMCL germ cell-less homolog (Drosophila) (GMCL) 218458_at / Fold change Katanin p80 (WD40-containing) subunit B 1 (KAT) 203163_at / Fold change NACHT, leucine rich repeat and PYD containing 1 (PP1044) 218380_at / Fold change Paternally expressed Gene 10 (PEG10) 212092_at / Fold change Paternally expressed Gene 10 (PEG10) 212094_at / Fold change Protein regulator of cytokinesis 1 (PRC1) 218009_s_at / Fold change SKAP55 protein 216899_s_at / Fold change Secreted frizzled-related protein 1 (FRP, SARP2) 202036_s_at / Fold change Secreted frizzled-related protein 1 (FRP, SARP2) 202037_s_at / Fold change Serine/threonine kinase 6 (AIK) 208079_s_at / Fold change Tribbles homolog 3a (TRIB3) 218145_at / Fold change Tumor necrosis factor receptor superfamily, member 6 (TNFRSF6) 215719_x_at / Fold change Tumor necrosis factor receptor superfamily, member 6 (TNFRSF6) 216252_x_at / Fold change Tumor protein p53 (Li-Fraumeni syndrome) 201746_at / Fold change Tumor protein p53 (Li-Fraumeni syndrome) 211300_s_at / Fold change member of the N-myc downregulated gene family (NDRG4) 209159_s_at: A549, 500 nM vs DMSO
Experimental: The human lung carcinoma cell line A549 is obtained from the American Type Culture Collection (Rockville, Md.) and cultured in F-12K (ATCC, Manassas, Va.), 10% fetal bovine serum, and 1% penicillin/streptomycin (Life Technologies, Inc.). LAQ824 (Novartis) is added directly to the cell medium at a final concentration of 500 nM. Microarray analysis is performed essentially as described previously (Welsh, 2001). Total RNA is prepared from A549 cells treated with LAQ 824 or DMSO for 0.5, 2, 6, 12 and 24 h. Labelled cDNA is prepared and hybridized to Affymetrix U133 oligonucleotide GeneChip® (Affymetrix, Santa Clara, Calif.). The arrays were scanned on an Affymetrix GeneArray scanner and analyzed with GENECHIP Microarray Analysis Suite 5.0 software (MAS5) (Affymetrix). The data (raw data including image files and scanner files (Cel. Files) as well as the MAS5 normalized data are stored in the DEMON Database. The MAS5 normalized data are exported from the database and analyzed using GeneSpring software version 6.1. The genes are filtered for a minimal expression of 100 in at least one condition (the condition being defined as the average the value for the 3 samples corresponding to a given time point and a treatement) The gene expression changes (fold change) are calculated for each time point (t) as follow: (Gene expression level LAQ824 treated—(Average of the 3 replicates) Time (t))/(Gene expression level DMSO treated—(Average of the 3 replicates) Time (t)).
Any fold change <0 indicated a down regulation or reduction of the mRNA production, any fold change >0 indicated an up regulation or increase of mRNA production. Genes are filtered according to the fold change and the statistical significance of the changes (1-way-ANOVA test p<0.05)).

O=C(/C=C/c1ccc(CN(CCO)CCc2c[nH]c3ccccc23)cc1)NO [LAQ824, N-Hydroxy-3-[4-[[(2-hydroxyethyl)[2-(1H-indol-3-yl)-ethyl]-amino]methyl]phenyl]-2E-2-propenamide]
Fold change AMP-activated protein kinase family member 5 (ARK5) 204589_at (12 h): −4.6 fold | Fold change ANP32B acidic (leucine-rich) nuclear phosphoprotein 32 family, member B (SSP29) 201305_x_at (12 h): −5.1 fold | Fold change AVEN apoptosis, caspase activation inhibitor (Aven) 219366_at (12 h): −2.6 fold | Fold change B-cell CLL/lymphoma 3 (BCL3) 204908_s_at (12 h): −5.5 fold | Fold change BAI1-associated protein 2 (BAP2, IRSp53) 205293_x_at (12 h): 6.8 fold | Fold change BAI1-associated protein 3 (BAP3, KIAA0734) 204874_x_at (12 h): 15.9 fold | Fold change BAI1-associated protein 3 (BAP3, KIAA0734) 216356_x_at (12 h): 27.9 fold | Fold change BCL2-associated athanogene 2 (BAG-2) 209406_at (12 h): −3.3 fold | Fold change BCL2-interacting killer (apoptosis-inducing) (BP4, NBK, BIP1) 205780_at (12 h): 12.0 fold | Fold change BCL2-like 1 (BCL2L1) 206665_s_at (12 h): −7.6 fold | Fold change BH3 interacting domain death agonist (BID) 204493_at (12 h): −3.6 fold | Fold change Cyclin A2 (CCN1, CCNA) 203418_at (12 h): −2.3 fold | Fold change Cyclin-dependent kinase inhibitor 2D (p19, inhibits CDK4) (INK4D) 210240_s_at (12 h): 4.8 fold | Fold change DEC1-anti apoptosis (BHLHB2) 201169_s_at (12 h): −4.8 fold | Fold change Diphtheria toxin receptor (heparin-binding epidermal growth factor-like growth factor) (DTR) 203821_at (12 h): 13.1 fold | Fold change Early growth response 1 (TIS8, NGFI-A, KROX-24, ZIF-268) 201694_s_at (12 h): 11.2 fold | Fold change GMCL germ cell-less homolog (Drosophila) (GMCL) 218458_at (12 h): 3.8 fold | Fold change Katanin p80 (WD40-containing) subunit B 1 (KAT) 203163_at (12 h): 4.3 fold | Fold change NACHT, leucine rich repeat and PYD containing 1 (PP1044) 218380_at (12 h): 11.3 fold | Fold change Paternally expressed Gene 10 (PEG10) 212092_at (12 h): 3.8 fold | Fold change Paternally expressed Gene 10 (PEG10) 212094_at (12 h): 3.5 fold | Fold change Protein regulator of cytokinesis 1 (PRC1) 218009_s_at (12 h): −2.5 fold | Fold change SKAP55 protein 216899_s_at (12 h): 1.8 fold | Fold change Secreted frizzled-related protein 1 (FRP, SARP2) 202036_s_at (12 h): 3.9 fold | Fold change Secreted frizzled-related protein 1 (FRP, SARP2) 202037_s_at (12 h): 3.9 fold | Fold change Serine/threonine kinase 6 (AIK) 208079_s_at (12 h): −2.4 fold | Fold change Tribbles homolog 3a (TRIB3) 218145_at (12 h): −4.0 fold | Fold change Tumor necrosis factor receptor superfamily, member 6 (TNFRSF6) 215719_x_at (12 h): −6.3 fold | Fold change Tumor necrosis factor receptor superfamily, member 6 (TNFRSF6) 216252_x_at (12 h): −4.9 fold | Fold change Tumor protein p53 (Li-Fraumeni syndrome) 201746_at (12 h): −4.4 fold | Fold change Tumor protein p53 (Li-Fraumeni syndrome) 211300_s_at (12 h): −3.7 fold | Fold change member of the N-myc downregulated gene family (NDRG4) 209159_s_at (12 h): 7.3 fold | Fold change AMP-activated protein kinase family member 5 (ARK5) 204589_at (24 h): −1.9 fold | Fold change ANP32B acidic (leucine-rich) nuclear phosphoprotein 32 family, member B (SSP29) 201305_x_at (24 h): −7.3 fold | Fold change AVEN apoptosis, caspase activation inhibitor (Aven) 219366_at (24 h): −8.2 fold | Fold change B-cell CLL/lymphoma 3 (BCL3) 204908_s_at (24 h): −1.8 fold | Fold change BAI1-associated protein 2 (BAP2, IRSp53) 205293_x_at (24 h): 3.6 fold | Fold change BAI1-associated protein 3 (BAP3, KIAA0734) 204874_x_at (24 h): 10.9 fold | Fold change BAI1-associated protein 3 (BAP3, KIAA0734) 216356_x_at (24 h): 19.2 fold | Fold change BCL2-associated athanogene 2 (BAG-2) 209406_at (24 h): −4.4 fold | Fold change BCL2-interacting killer (apoptosis-inducing) (BP4, NBK, BIP1) 205780_at (24 h): 15.5 fold | Fold change BCL2-like 1 (BCL2L1) 206665_s_at (24 h): −2.0 fold | Fold change BH3 interacting domain death agonist (BID) 204493_at (24 h): −4.6 fold | Fold change Cyclin A2 (CCN1, CCNA) 203418_at (24 h): −13.3 fold | Fold change Cyclin-dependent kinase inhibitor 2D (p19, inhibits CDK4) (INK4D) 210240_s_at (24 h): 2.0 fold | Fold change DEC1-anti apoptosis (BHLHB2) 201169_s_at (24 h): −1.9 fold | Fold change Diphtheria toxin receptor (heparin-binding epidermal growth factor-like growth factor) (DTR) 203821_at (24 h): 3.2 fold | Fold change Early growth response 1 (TIS8, NGFI-A, KROX-24, ZIF-268) 201694_s_at (24 h): 4.6 fold | Fold change GMCL germ cell-less homolog (Drosophila) (GMCL) 218458_at (24 h): 2.3 fold | Fold change Katanin p80 (WD40-containing) subunit B 1 (KAT) 203163_at (24 h): 2.9 fold | Fold change NACHT, leucine rich repeat and PYD containing 1 (PP1044) 218380_at (24 h): 22.7 fold | Fold change Paternally expressed Gene 10 (PEG10) 212092_at (24 h): 7.0 fold | Fold change Paternally expressed Gene 10 (PEG10) 212094_at (24 h): 6.5 fold | Fold change Protein regulator of cytokinesis 1 (PRC1) 218009_s_at (24 h): −5.1 fold | Fold change SKAP55 protein 216899_s_at (24 h): 4.0 fold | Fold change Secreted frizzled-related protein 1 (FRP, SARP2) 202036_s_at (24 h): 4.5 fold | Fold change Secreted frizzled-related protein 1 (FRP, SARP2) 202037_s_at (24 h): 4.4 fold | Fold change Serine/threonine kinase 6 (AIK) 208079_s_at (24 h): −8.3 fold | Fold change Tribbles homolog 3a (TRIB3) 218145_at (24 h): −10.1 fold | Fold change Tumor necrosis factor receptor superfamily, member 6 (TNFRSF6) 215719_x_at (24 h): −4.8 fold | Fold change Tumor necrosis factor receptor superfamily, member 6 (TNFRSF6) 216252_x_at (24 h): −5.6 fold | Fold change Tumor protein p53 (Li-Fraumeni syndrome) 201746_at (24 h): −7.1 fold | Fold change Tumor protein p53 (Li-Fraumeni syndrome) 211300_s_at (24 h): −7.3 fold | Fold change member of the N-myc downregulated gene family (NDRG4) 209159_s_at (24 h): 4.5 fold | NF—Y gene expression in response to LAQ824 treatment (A549 cells, DNA microarray analysis): significantly up-regulated

Source: patent publication US20070082339A1, “Methods and compositions for screening for HDAC inhibitory activity” (priority 2005, published 2007)
